# Paper PMC9315496, “A Comparison of the Photophysical, Electrochemical and Cytotoxic Properties of meso-(2-, 3- and 4-Pyridyl)-BODIPYs and Their Derivatives” (Sensors (Basel, Switzerland), 2022)
# Like-named read-outs stand apart in the source and are kept apart here. Marks after values point to notes of the source that are not given here.
# How the values were obtained:
# [1] = Cyclic voltammetry; format: physicochemical
# Text: Cyclic voltammograms were collected on a Biologic SP-300 potentiostat using a three-electrode setup with a platinum working electrode (2 mm diameter, CH Instruments), platinum counter electrode (2 mm diameter, CH Instruments), and a silver wire pseudo reference-electrode stored in 0.25 M NBu4PF6 in anhydrous acetonitrile and separated from the electrochemical cell by a glass frit. The electrochemical cell was composed of a borosilicate glass scintillation vial with a custom-machined cap. Working electrodes were polished and then pre-treated by cycling between upper and lower boundaries of the electrochemical window for the experiment in a solution containing only the electrolyte. Measurements were taken in a solution of 0.25 M recrystallized NBu4PF6 in dried and degassed anhydrous acetonitrile. BODIPYs were added to 5 mL of electrolyte solution to give a concentration of 1 mM. Each solution also contained 1 mM ferrocene as an internal reference. Solutions were sparged with N2 before each measurement.
# [2] = system: HEp2 cells; experiment: Dark cytotoxicity, Cell Titer Blue; format: cell-based; settings: Homo sapiens, HEp-2, 24 h incubation, read-out: Dark Toxicity (IC50)
# Protocol: (§1) Human carcinoma HEp2 cells were obtained from ATCC and maintained in a 75 cm^2 flask (Chemglass) with 1× MEM (Eagle’s minimal essential medium) containing 10% FBS (fetal bovine serum) and 1% antibiotic (penicillin–streptomycin) in a humidified, 5% CO2 incubator at 37 °C. Stock solutions with a concentration of 32 mM in DMSO were prepared for each BODIPY. The stock solution was diluted to the final working concentrations with culture medium. The HEp2 cells were plated at 7500–10,000 cells per well in a Costar 96-well plate and allowed to grow for 24 h. The BODIPY stock solution was diluted to a 200 μM working solution and two-fold serial dilutions were prepared with final concentrations of 200, 100, 50, 25, 12.5, 6.25, and 0 μM. Each BODIPY was incubated for 24 h at 37 °C under 5% CO2. For the dark cytotoxicity experiments, after incubation, excess BODIPY was removed by washing the cells three times with 1× PBS (phosphate-buffered saline) and replacing with media containing 20% Cell Titer Blue (Promega, Madison, WI, USA). The cells were then incubated for additional 24 h at 37 °C under 5% CO2 and the cell toxicity was determined by fluorescence intensity at ex 570/em 615 nm using a FluoStar Optima microplate reader (BMG Labtech, Cary, NC, USA).
# [3] = system: HEp2 cells; experiment: Phototoxicity (1.5 J/cm^2), Cell Titer Blue; format: cell-based; settings: Homo sapiens, HEp-2, light or radiation study, light dose 1.5 J/cm^2
# Protocol: as §1
# For the phototoxicity experiments, after incubation the cells were exposed to a light dose of ~1.5 J/cm^2 generated using a 600 W Quartz Tungsten Halogen lamp (Newport Corporation, Irvine, CA, USA). The cells were exposed for 20 min while the 96-well plate rested on an EchoTherm chilling plate (Torrey Pines Scientific, Carlsbad, CA, USA) set to 5 °C. Following light exposure, the loading media was removed and media containing 20% Cell Titer Blue was added. After incubation for 24 h at 37 °C under 5% CO2, the cell viability was determined as described above.
# [4] = UV-vis absorption and emission spectroscopy, relative fluorescence quantum yields; format: physicochemical; settings: for λabs / λem: room temperature; for Φf (relative fluorescence quantum yield): standard Ru(bpy)Cl2.6H2O (Φf = 0.028) in H2O, λexc = 436 nm; for bathochromic shift of maximum absorption wavelength upon methylation: acetonitrile, experimental; for fluorescence enhancement relative to the non-chlorinated pyridinium BODIPY: water; for Фf (relative fluorescence quantum yield): standard rhodamine-6G (Ф = 0.86) in methanol, λexc = 473 nm
# Protocol: UV−vis absorption spectra were collected on a Varian Cary 50 Bio spectrophotometer. Emission spectra were obtained on a PerkinElmer LS55 spectrophotometer, at room temperature. Spectrophotometric grade solvents and quartz cuvettes (1 cm path length) were used. Relative fluorescence quantum yields (Φf) were calculated using rhodamine 6G (Φf = 0.86 in methanol) as reference for the neutral BODIPYs and Ru(bpy)Cl2.6H2O (Φf = 0.028 in water) as the standard for the cationic BODIPYs using the following equation: Φx = Φst × Gradx/Gradst × (ηx/ηst)^2, where the ΦX and ΦST are the quantum yields of the sample and standard, GradX and GradST are the gradients from the plot of integrated fluorescence intensity vs. absorbance, and η represents the refractive index of the solvent (x is for the sample and st for the standard).
# [5] = cited from earlier work
# [6] = vs. Fc^+/Fc, 100 mV/s, acetonitrile, 0.25 M NBu4PF6
# [7] = vs. Fc^+/Fc, 100 mV/s, acetonitrile, 0.25 M NBu4PF6, PF6^− counterion
smiles,measurement,setting,value
"CC1=CC(C)=[N+]2C1=C(c1cccc[n+]1C)c1c(C)cc(C)n1[B-]2(F)F [2catPy, 1,3,5,7-Tetramethyl-8-(N-methyl-2-pyridyl)-BODIPY Iodide]","first reduction, more negative than the two-electron reduction in 4catPy",[1],30 mV
same,oxidation potential shift positive compared with 4catPy and 3catPy,[1],100 mV
same,"second reduction, more negative than the two-electron reduction in 4catPy",[1],230 mV
same,"E1/2red, first one-electron reduction",[1]; [6],−1.09 V
same,"E1/2red, second one-electron reduction",[1]; [6],−1.29 V
same,E1/2ox,[1]; [7],~+0.99 ^a V
same,IC50,[2],> 200 µM
same,IC50,[3],> 100 µM
same,Stokes Shift,[4]; CH3CN,24 nm
same,ε (molar extinction coefficient),[4]; CH3CN,"65,800 M^−1 cm ^−1"
same,λabs,[4]; CH3CN,520 nm
same,λem,[4]; CH3CN,544 nm
same,Φf (relative fluorescence quantum yield),[4]; CH3CN,0.13 ^b
same,Stokes Shift,[4]; H2O,22 nm
same,ε (molar extinction coefficient),[4]; H2O,"52,380 M^−1 cm ^−1"
same,λabs,[4]; H2O,520 nm
same,λem,[4]; H2O,542 nm
same,Φf (relative fluorescence quantum yield),[4]; H2O,0.001 ^b
same,bathochromic shift of maximum absorption wavelength upon methylation,[4],18 nm
"CC1=CC(C)=[N+]2C1=C(c1ccc[n+](C)c1)c1c(C)cc(C)n1[B-]2(F)F [3catPy, 1,3,5,7-Tetramethyl-8-(N-methyl-3-pyridyl)-BODIPY Iodide]","first reduction, more negative than the two-electron reduction in 4catPy",[1],200 mV
same,"second reduction, more negative than the two-electron reduction in 4catPy",[1],480 mV
same,"E1/2red, first one-electron reduction",[1]; [6],−1.26 V
same,"E1/2red, second one-electron reduction",[1]; [6],−1.54 V
same,E1/2ox,[1]; [7],+0.89 V
same,IC50,[2],> 200 µM
same,IC50,[3],> 100 µM
same,Stokes Shift,[4]; CH3CN,22 nm
same,ε (molar extinction coefficient),[4]; CH3CN,"65,460 M^−1 cm ^−1"
same,λabs,[4]; CH3CN,510 nm
same,λem,[4]; CH3CN,532 nm
same,Φf (relative fluorescence quantum yield),[4]; CH3CN,0.006
same,Φf (relative fluorescence quantum yield),"[4]; CH3CN, listed as 3catPy (I^−)",0.006 ^b
same,Stokes Shift,[4]; H2O,20 nm
same,ε (molar extinction coefficient),[4]; H2O,"37,320 M^−1 cm ^−1"
same,λabs,[4]; H2O,510 nm
same,λem,[4]; H2O,530 nm
same,Φf (relative fluorescence quantum yield),[4]; H2O,0.005 ^b
same,bathochromic shift of maximum absorption wavelength upon methylation,[4],8 nm
CC1=C(Cl)C(C)=[N+]2C1=C(c1ccncc1)c1c(C)c(Cl)c(C)n1[B-]2(F)F [4PyCl2],Stokes Shift,[5]; CH3CN,18 nm
same,Φf (fluorescence quantum yield),[5]; CH3CN,0.58
same,ε (molar extinction coefficient),[5]; CH3CN,"50,800 M^−1 cm ^−1"
same,λabs,[5]; CH3CN,528 nm
same,λem,[5]; CH3CN,546 nm
CC1=CC(C)=[N+]2C1=C(c1ccncc1)c1c(C)cc(C)n1[B-]2(F)F [4Py],IC50,[2],> 200 µM
same,IC50,[3],> 100 µM
same,Stokes Shift,[5]; CH3CN,14 nm
same,Φf (fluorescence quantum yield),[5]; CH3CN,0.31
same,ε (molar extinction coefficient),[5]; CH3CN,"72,100 M^−1 cm ^−1"
same,λabs,[5]; CH3CN,501 nm
same,λem,[5]; CH3CN,515 nm
"CC1=C(Cl)C(C)=[N+]2C1=C(c1cccc[n+]1C)c1c(C)c(Cl)c(C)n1[B-]2(F)F [2catPyCl2, 2,6-Dichloro-8-(N-methyl-2-pyridyl)-1,3,5,7-tetramethyl-BODIPY]",first reduction wave shift positive compared with the unchlorinated BODIPY,[1],220 mV
same,second reduction wave shift positive compared with the unchlorinated BODIPY,[1],130 mV
same,anodic peak shift positive compared with the corresponding unchlorinated BODIPY,[1]; 100 mV/s,70 mV
same,"E1/2red, first one-electron reduction",[1]; [6],−0.87 V
same,"E1/2red, second one-electron reduction",[1]; [6],−1.16 V
same,E1/2ox,"[1]; vs. Fc^+/Fc, value at 10 V/s, acetonitrile, 0.25 M NBu4PF6",+1.10 ^b V
same,IC50,[2],80 µM
same,IC50,[3],80 µM
same,Stokes Shift,[4]; CH3CN,17 nm
same,ε (molar extinction coefficient),[4]; CH3CN,"19,420 M^−1 cm ^−1"
same,λabs,[4]; CH3CN,530 nm
same,λem,[4]; CH3CN,547 nm
same,Φf (relative fluorescence quantum yield),[4]; CH3CN,0.17 ^b
same,Stokes Shift,[4]; H2O,22 nm
same,ε (molar extinction coefficient),[4]; H2O,"21,000 M^−1 cm ^−1"
same,λabs,[4]; H2O,555 nm
same,λem,[4]; H2O,577 nm
same,Φf (relative fluorescence quantum yield),[4]; H2O,0.24
same,Φf (relative fluorescence quantum yield),"[4]; H2O, listed as 2catPyCl2 (I^−)",0.24 ^b
same,fluorescence enhancement relative to the non-chlorinated pyridinium BODIPY,[4],over 200 fold
CC1=CC(C)=[N+]2C1=C(c1cccnc1)c1c(C)cc(C)n1[B-]2(F)F [3Py],IC50,[2],> 200 µM
same,IC50,[3],> 100 µM
same,Stokes Shift,[4]; CH3CN,12 nm
same,ε (molar extinction coefficient),[4]; CH3CN,"92,900 M^−1 cm ^−1"
same,λabs,[4]; CH3CN,502 nm
same,λem,[4]; CH3CN,514 nm
same,Stokes Shift,[4]; CH3OH,12 nm
same,labs,[4]; CH3OH,503 nm
same,lem,[4]; CH3OH,515 nm
same,ε (molar extinction coefficient),[4]; CH3OH,98140 M-1 cm -1
same,Фf (relative fluorescence quantum yield),[4]; CH3OH,0.34
"CC/N=c1\cc2oc3cc(NCC)c(C)cc3c(-c3ccccc3C(=O)OCC)c-2cc1C [rhodamine 6G, reference compound]",Φf of the reference standard,[5]; in methanol,0.86
"CC1=C(Cl)C(C)=[N+]2C1=C(c1ccccn1)c1c(C)c(Cl)c(C)n1[B-]2(F)F [2PyCl2, 2,6-Dichloro-8-(2-pyridyl)-1,3,5,7-tetramethyl-BODIPY]",IC50,[2],> 200 µM
same,IC50,[3],> 100 µM
same,Stokes Shift,[4]; CH3CN,15 nm
same,ε (molar extinction coefficient),[4]; CH3CN,"64,280 M^−1 cm ^−1"
same,λabs,[4]; CH3CN,530 nm
same,λem,[4]; CH3CN,545 nm
same,Stokes Shift,[4]; CH3OH,17 nm
same,labs,[4]; CH3OH,531 nm
same,lem,[4]; CH3OH,548 nm
same,ε (molar extinction coefficient),[4]; CH3OH,69940 M-1 cm -1
same,Фf (relative fluorescence quantum yield),[4]; CH3OH,0.23
CC1=C(Cl)C(C)=[N+]2C1=C(c1cc[n+](C)cc1)c1c(C)c(Cl)c(C)n1[B-]2(F)F [4catPyCl2],two-electron reduction shift positive compared with 4catPy,[1],180 mV
same,anodic peak shift positive compared with the corresponding unchlorinated BODIPY,[1]; 100 mV/s,180 mV
same,"E1/2red, two-electron reduction to doubly reduced state",[1]; [6],−0.89 ^e V
same,E1/2ox,"[1]; vs. Fc^+/Fc, value at 1 V/s, acetonitrile, 0.25 M NBu4PF6",+1.03 ^d V
same,fluorescence enhancement relative to the non-chlorinated pyridinium BODIPY,[4],10 fold
same,Stokes Shift,[5]; CH3CN,62 nm
same,Φf (fluorescence quantum yield),[5]; CH3CN,0.048
same,ε (molar extinction coefficient),[5]; CH3CN,"23,400 M^−1 cm ^−1"
same,λabs,[5]; CH3CN,538 nm
same,λem,[5]; CH3CN,600 nm
same,Stokes Shift,[5]; H2O,65 nm
same,Φf (fluorescence quantum yield),[5]; H2O,0.038
same,ε (molar extinction coefficient),[5]; H2O,"11,640 M^−1 cm ^−1"
same,λabs,[5]; H2O,540 nm
same,λem,[5]; H2O,605 nm
"CC1=C(Cl)C(C)=[N+]2C1=C(c1cccnc1)c1c(C)c(Cl)c(C)n1[B-]2(F)F [3PyCl2, 2,6-Dichloro-8-(3-pyridyl)-1,3,5,7-tetramethyl-BODIPY]",IC50,[2],200 µM
same,IC50,[3],> 100 µM
same,Stokes Shift,[4]; CH3CN,15 nm
same,ε (molar extinction coefficient),[4]; CH3CN,"57,540 M^−1 cm ^−1"
same,λabs,[4]; CH3CN,527 nm
same,λem,[4]; CH3CN,542 nm
same,Stokes Shift,[4]; CH3OH,16 nm
same,labs,[4]; CH3OH,530 nm
same,lem,[4]; CH3OH,546 nm
same,ε (molar extinction coefficient),[4]; CH3OH,66880 M-1 cm -1
same,Фf (relative fluorescence quantum yield),[4]; CH3OH,0.57
CC1=CC(C)=[N+]2C1=C(c1ccccn1)c1c(C)cc(C)n1[B-]2(F)F [2Py],IC50,[2],> 200 µM
same,IC50,[3],> 100 µM
same,Stokes Shift,[4]; CH3CN,12 nm
same,ε (molar extinction coefficient),[4]; CH3CN,"87,500 M^−1 cm ^−1"
same,λabs,[4]; CH3CN,502 nm
same,λem,[4]; CH3CN,514 nm
same,Stokes Shift,[4]; CH3OH,10 nm
same,labs,[4]; CH3OH,504 nm
same,lem,[4]; CH3OH,514 nm
same,ε (molar extinction coefficient),[4]; CH3OH,119800 M-1 cm -1
same,Фf (relative fluorescence quantum yield),[4]; CH3OH,0.13
"O.O.O.O.O.O.[Cl-].[Cl-].[Ru+2].c1ccc(-c2ccccn2)nc1.c1ccc(-c2ccccn2)nc1.c1ccc(-c2ccccn2)nc1 [Ru(bpy)Cl2.6H2O, reference compound]",Φf of the reference standard,[5]; in water,0.028
